# Experiments:
# [1] = test system: MCF7 cells; assay: MCF7 cell proliferation; format: cell-based; settings: 10 μM, 48 h
# [2] = target: T1, SCP2 C307 (Homo sapiens, UniProt P22307); assay: isoTOP-ABPP after in situ treatment of 231MFP cells; format: binding; settings: 100 μM, 4 h in 231MFP cells in situ
# T1 construct: IsoTOP-ABPP analysis of DKM 2-90 treatment in 231MFP cells in situ; endogenous in cells; host or cells: 231MFP cells
# T1 sequence (P22307 1-547): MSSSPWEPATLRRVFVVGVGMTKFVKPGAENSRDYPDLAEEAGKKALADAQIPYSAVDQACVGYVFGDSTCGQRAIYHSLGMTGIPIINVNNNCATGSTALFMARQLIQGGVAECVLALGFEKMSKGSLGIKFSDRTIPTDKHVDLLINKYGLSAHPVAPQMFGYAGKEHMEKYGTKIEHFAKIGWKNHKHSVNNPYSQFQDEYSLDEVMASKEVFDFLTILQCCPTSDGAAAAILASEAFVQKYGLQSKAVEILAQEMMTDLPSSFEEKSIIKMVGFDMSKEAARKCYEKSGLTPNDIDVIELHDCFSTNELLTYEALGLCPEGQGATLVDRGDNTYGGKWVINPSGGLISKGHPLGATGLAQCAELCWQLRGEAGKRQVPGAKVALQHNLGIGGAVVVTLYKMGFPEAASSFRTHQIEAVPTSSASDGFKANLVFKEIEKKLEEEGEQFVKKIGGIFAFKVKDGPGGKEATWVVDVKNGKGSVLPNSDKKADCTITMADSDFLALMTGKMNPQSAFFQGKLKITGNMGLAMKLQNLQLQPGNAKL
# Procedure: (§1) IsoTOP-ABPP studies were performed using the methods described in “Nature 534(7608), 570-574 (2016)” by Backus K. M., et al. and “Nature 468(7325), 790-795 (2010)” by Weerapana E., et al. […] Then, IAyne (iodoacetamide-alkyne) labeling was performed for 1 hour at room temperature. CuAAC was used by sequential addition of tris(2-carboxyethyl)phosphine (1 mM), tris[(1-benzyl-1H-1,2,3-triazol-4-yl)methyl]amine (34 μM), copper (II) sulfate (1 mM), and biotin-linker-azide where the linker was functionalized with a TEV protease recognition sequence along with an isotopically light or heavy valine for treatment of control or treated proteome, respectively. After click reactions, proteomes were precipitated by centrifugation at 6500×g, washed in ice-cold methanol, combined in a 1:1 control/treated ratio, washed again, then denatured and re-solubilized by heating in 1.2% SDS/PBS to 80° C. for 5 minutes. Insoluble components were precipitated by centrifugation at 6500×g and soluble proteome was diluted in 0.2% SDS/PBS (5 ml). Labeled proteins were bound to avidin-agarose beads (170 μl re-suspended beads/sample) while rotating overnight at 4° C. Bead-linked proteins were enriched by washing three times each in PBS and water, then re-suspended in urea/PBS (6 M), reduced in TCEP (1 mM), alkylated with iodoacetamide (18 mM), then washed and re-suspended in urea/PBS (2 M), and finally trypsinized overnight with 0.5 μg/μl sequencing grade trypsin. Tryptic peptides were eluted off. Beads were washed in PBS (3 times) and water (3 times), washed in TEV buffer solution (water, TEV buffer, 100 μM dithiothreitol), and re-suspended in buffer with Ac-TEV protease and then incubated overnight. Peptides were diluted in water, acidified with formic acid (1.2 M), and prepared for analysis.
# (§2) Peptides from all proteomic experiments were pressure-loaded onto an Agilent 600 series RP-HPLC system equipped with a capillary tubing (250 mm) packed with Aqua C18 reverse-phase resin (4 cm). The system was previously equilibrated with a gradient (0% B to 100% B over 10 minutes, 100% B for 5 minutes, then 0% B for 5 minutes; buffer A: 95:5 water:acetonitrile, 0.1% formic acid; buffer B: 80:20 acetonitrile:water, 0.1% formic acid). The samples were then attached using a MicroTee PEEK 360 μm fitting to a laser pulled column (13 cm) packed with Aqua C18 reverse-phase resin (10 cm) and strong-cation exchange resin (3 cm) for isoTOP-ABPP studies. Samples were analyzed using an Q Exactive Plus mass spectrometer using a 5-step Multidimensional Protein Identification Technology (MudPIT) program. The system was run using a gradient (5% B to 55% B; buffer A: 95:5 water:acetonitrile, 0.1% formic acid; buffer B: 80:20 acetonitrile:water, 0.1% formic acid), along with a salt bump feeding aqueous ammonium acetate (500 mM) at an increment of 0%, 25%, 50%, 80%, to 100%. Data was collected in data-dependent acquisition mode with dynamic exclusion enabled (60 sec). One full MS scan (400-1800 m/z) (MS1 scan) was conducted, followed by MS2 scan (ITMS) (15 times) of the most abundant ions. Heated capillary temperature was set to 200° C. and the nanospray voltage was set to 2.75 kV.
# (§3) Data was extracted in the form of MS1 and MS2 files using Raw Extractor 1.9.9.2 and searched against the Uniprot […] database using ProLuCID search methodology in IP2 v.3, described in “J Proteomics 129:16-24 (2015)” by Xu T, et al. Cysteine residues were searched with a static modification for carboxyaminomethylation (+m/z 57.02146), up to two differential modifications for methionine oxidation, and either the light or heavy TEV tags (+m/z 464.28596 or +m/z 470.29977, respectively). Peptides were required to have at least one tryptic end and to contain the TEV modification. ProLUCID data was filtered through DTASelect to achieve a peptide false-positive rate below 1%. […]
# [3] = target: T2, TXNDC17 C43 (Homo sapiens, UniProt Q9BRA2); assay: as above; format: binding; settings: 100 μM, 4 h in 231MFP cells in situ
# T2 construct: IsoTOP-ABPP analysis of DKM 2-90 treatment in 231MFP cells in situ; endogenous in cells; host or cells: 231MFP cells
# T2 sequence (Q9BRA2 1-123): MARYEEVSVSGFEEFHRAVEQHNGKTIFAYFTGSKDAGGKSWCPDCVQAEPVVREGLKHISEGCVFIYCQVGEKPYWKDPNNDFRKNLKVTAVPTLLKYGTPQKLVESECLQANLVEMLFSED
# Procedure: as §1, §2, §3
# [4] = In vivo tolerability during xenograft treatment; settings: daily treatment for >30 days, 50 mg/kg ip
compound,measurement,setting,value
"CC1=C(CO)C(=O)O[C@@H]([C@@H](C)[C@H]2CC[C@H]3[C@@H]4C[C@H]5O[C@]56[C@@H](O)C=CC(=O)[C@]6(C)[C@H]4CC[C@]23C)C1 [withaferin A, reference compound]",cell proliferation,[1],impairs
"O=C(CCl)Nc1ccc2c(c1)OCCO2 [DKM 2-90, 2-Chloro-N-(2,3-dihydrobenzo[β][1,4]dioxin-6-yl)acetamide]","isotopically light to heavy ratio, SCP2 C307",[2],> 5
same,"isotopically light to heavy ratio, TXNDC17 C43",[3],> 5
"O=C(CCl)N(Cc1ccccc1)c1ccc2c(c1)OCCO2 [JNS 1-40, N-benzyl-2-chloro-N-(2,3-dihydrobenzo[b][1,4]dioxin-6-yl)acetamide]",overt toxicity or body weight loss,[4],did not cause any overt toxicity or body weight loss

# Reference: patent US20200054651A1, “COMPOSITIONS AND METHODS FOR MODULATING PPP2R1A” (The Regents of the University of California, priority 2017, published 2020)
